The source of these data is ChEMBL document CHEMBL2429807, “Synthesis and cytotoxicity of novel 4-(4-(substituted)-1H-1,2,3-triazol-1-yl)-N-phenethylbenzenesulfonamides” (Med Chem Res, 2013).

Format in all cases: functional, cell-based
For one assay, the system named is A549. Description: Cytotoxicity against human A549 cells after 48 hrs by MTT assay. The conditions noted are these: A549, 48 h. On the technique in general: Tetrazolium dyes change colour on reduction, which living cells bring about.
A short description of assay [1]: Cytotoxicity against human HuCCa1 cells after 48 hrs by MTT assay. The conditions noted are these: HuCC-A1, 48 h.
Another assay has as its system HepG2. Briefly: Cytotoxicity against human HepG2 cells after 48 hrs by MTT assay. To be noted: HepG2, 48 h.
A further assay concerns MOLT-3. Description: Cytotoxicity against human MOLT3 cells after 48 hrs by XTT assay. The conditions noted are these: MOLT-3, 48 h.

For `COc1cccc2c1C(=O)c1c(O)c3c(c(O)c1C2=O)C[C@@](O)(C(=O)CO)C[C@@H]3O[C@H]1C[C@H](N)[C@H](O)[C@H](C)O1` [DOXORUBICIN], the IC50 (in general, the concentration that inhibits the measured activity by half) in the assay with A549 was found to be 0.44 µM; in assay [1], 0.83 µM; in the assay with HepG2 it was 0.79 µM.
Consider `Cc1ccc(OCc2cn(-c3ccc(S(=O)(=O)NCCc4ccccc4)cc3)nn2)cc1`, for which the IC50 in the assay with MOLT-3 was greater than 50 µg/mL; in the assay on A549, greater than 50 µg/mL; in assay [1] it was greater than 50 µg/mL; with HepG2, 81.8 µM.
Consider `[N-]=[N+]=Nc1ccc(S(=O)(=O)NCCc2ccccc2)cc1`, for which the IC50 is 60.1 µM in the assay on MOLT-3, 139 µM with A549, greater than 50 µg/mL in assay [1] and 92.6 µM in the assay on HepG2.
Consider `O=[N+]([O-])c1ccc(OCc2cn(-c3ccc(S(=O)(=O)NCCc4ccccc4)cc3)nn2)cc1`, for which the IC50 is 61.4 µM in the assay with MOLT-3, greater than 50 µg/mL in the assay with A549, greater than 50 µg/mL in assay [1] and greater than 50 µg/mL in the assay with HepG2.
On to `O=S(=O)(NCCc1ccccc1)c1ccc(-n2cc(COc3ccc4ccccc4c3)nn2)cc1`, for which the IC50 in the assay with MOLT-3 is 74.2 µM; in the assay on A549, greater than 50 µg/mL; in assay [1], greater than 50 µg/mL; in the assay on HepG2 it was 28.2 µM.
Turning to `COc1ccc(C=O)cc1OCc1cn(-c2ccc(S(=O)(=O)NCCc3ccccc3)cc2)nn1`, the IC50 in the assay on MOLT-3 was 10.3 µM; with A549, 39 µM; in assay [1] it was greater than 50 µg/mL; in the assay with HepG2 it was 34.5 µM.
Take `O=c1ccc2ccc(OCc3cn(-c4ccc(S(=O)(=O)NCCc5ccccc5)cc4)nn3)cc2o1`: the IC50 with MOLT-3 is 89 µM; in the assay with A549, 19.6 µM; in assay [1] it was 16.1 µM; with HepG2 it was 12.4 µM.
On to `O=S(=O)(NCCc1ccccc1)c1ccc(-n2cc(COc3cccc4ccccc34)nn2)cc1`, for which the IC50 (with MOLT-3; in the assay with A549; in assay [1]; with HepG2) was greater than 50 µg/mL throughout.
For `O=c1cc(OCc2cn(-c3ccc(S(=O)(=O)NCCc4ccccc4)cc3)nn2)c2ccccc2o1`, the IC50 in the assay with MOLT-3 was 10.7 µM; in the assay with A549 it was greater than 50 µg/mL; in assay [1] it was greater than 50 µg/mL; in the assay on HepG2, greater than 50 µg/mL.
Take `COC(=O)c1ccccc1OCc1cn(-c2ccc(S(=O)(=O)NCCc3ccccc3)cc2)nn1`: the IC50 with MOLT-3 is 8.81 µM; with A549, greater than 50 µg/mL; in assay [1], greater than 50 µg/mL; in the assay on HepG2, 49.4 µM.
Consider `COc1ccc(CCNS(=O)(=O)c2ccc(-n3cc(-c4ccccc4)nn3)cc2)cc1OC`, for which the IC50 in the assay with MOLT-3 is 61 µM; in the assay with A549, 18.2 µM; in assay [1] it was greater than 50 µg/mL; with HepG2, 23.9 µM.
Take `COc1ccc(CCNS(=O)(=O)c2ccc(-n3cc(COc4ccc(C=O)cc4)nn3)cc2)cc1OC`: the IC50 in the assay on MOLT-3 is 17.4 µM; in the assay with A549 it was 28 µM; in assay [1], greater than 50 µg/mL; in the assay with HepG2, greater than 50 µg/mL.
For `COc1cc([C@@H]2c3cc4c(cc3[C@@H](O[C@@H]3O[C@@H]5CO[C@@H](C)O[C@H]5[C@H](O)[C@H]3O)[C@H]3COC(=O)[C@H]23)OCO4)cc(OC)c1O` [ETOPOSIDE], the figures for the IC50 in the assay on MOLT-3 and in the assay with HepG2 were 0.051 µM and 30.2 µM, respectively.
Turning to `O=S(=O)(NCCc1ccccc1)c1ccc(-n2cc(-c3ccccc3)nn2)cc1`, the IC50 is greater than 50 µg/mL in the assay on MOLT-3, 34.5 µM in the assay with A549, 8.65 µM in assay [1] and 9.07 µM in the assay with HepG2.
For the molecule `O=S(=O)(NCCc1ccccc1)c1ccc(-n2cc(COc3ccccc3)nn2)cc1`, the IC50 with MOLT-3 was greater than 50 µg/mL; in the assay with A549 it was greater than 50 µg/mL; in assay [1], greater than 50 µg/mL; in the assay with HepG2, 57.5 µM.
As for `Cc1ccccc1OCc1cn(-c2ccc(S(=O)(=O)NCCc3ccccc3)cc2)nn1`, the IC50 with MOLT-3 is 34.2 µM; in the assay on A549, greater than 50 µg/mL; in assay [1], greater than 50 µg/mL; in the assay with HepG2, 41.6 µM.
For `O=Cc1ccc(OCc2cn(-c3ccc(S(=O)(=O)NCCc4ccccc4)cc3)nn2)cc1`, the 50% inhibitory concentration (IC50) was 32 µM in the assay with MOLT-3, greater than 50 µg/mL with A549, 87.9 µM in assay [1] and 101 µM in the assay on HepG2.
With `COc1ccc(CCNS(=O)(=O)c2ccc(N=[N+]=[N-])cc2)cc1OC`, the IC50 in the assay with MOLT-3 was 48.5 µM; in the assay on A549, greater than 50 µg/mL; in assay [1], greater than 50 µg/mL; in the assay with HepG2, 122 µM.
With `COc1ccc(CCNS(=O)(=O)c2ccc(-n3cc(COc4ccc([N+](=O)[O-])cc4)nn3)cc2)cc1OC`, the IC50 in the assay on MOLT-3 was 10.1 µM; in the assay on A549, greater than 50 µg/mL; in assay [1], greater than 50 µg/mL; with HepG2, greater than 50 µg/mL.
In the case of `Nc1ccc(S(=O)(=O)NCCc2ccccc2)cc1`, the IC50 with MOLT-3 was 167 µM; in the assay with A549, greater than 50 µg/mL; in assay [1], greater than 50 µg/mL; with HepG2, greater than 50 µg/mL.
Consider `COc1ccc(CCNS(=O)(=O)c2ccc(N)cc2)cc1OC`, for which the IC50 in the assay with MOLT-3 is 104 µM; in the assay on A549 it was greater than 50 µg/mL; in assay [1], greater than 50 µg/mL; with HepG2, greater than 50 µg/mL.
Consider `COc1cc(C=O)ccc1OCc1cn(-c2ccc(S(=O)(=O)NCCc3ccccc3)cc2)nn1`, for which the IC50 with MOLT-3 is 9.22 µM; with A549 it was 79.2 µM; in assay [1] it was greater than 50 µg/mL; in the assay on HepG2 it was 57.5 µM.
